In PMC8708666, “Screening of Self-Assembling of Collagen IV Fragments into Stable Structures Potentially Useful in Regenerative Medicine” (International Journal of Molecular Sciences, 2021):

Legend:
[1] = CD study of self-organization into structures mimicking the collagen triple helix; format: physicochemical; set-up: key to Ability to Mimic the Structure of the Collagen Helix: +++: peptides that were able to mimic the spatial structure of collagen at 4 °C, 20 °C and 40 °C; +: a fragment mimicking the spatial structure of collagen only at 4 °C; fragments that do not have the ability to aggregate into stable three-dimensional structures; conditions: CD at 4 °C, 20 °C and 40 °C after 24 h incubation; for ability to self-organize into structures mimicking the triple helix (CD): water, 0.1 mg/mL
From the text: The next stage of the research was to check whether peptides 1–33 and 2.1–2.4 have the ability to self-organize, enabling the formation of structures mimicking the structure of the triple helix characteristic of collagens, including the COL domain of type IV collagen. The method of circular dichroism was used in the research, allowing both the secondary and tertiary structure of peptides and proteins to be determined. This method can also be successfully used to observe the process of protein self-organization depending on the temperature or pH. […] A characteristic feature of triple helix collagens is the maximum at about 220 nm and the minimum at about 190–200 nm. Based on literature data, the CD spectrum corresponding to the triple helix characteristic of collagens as a function of temperature was simulated (Figure 9j). The main factors stabilizing the collagen triple helix are the hydrogen bonds between the hydrogen atom of the amino group and the oxygen atom of the carbonyl group. These are relatively weak bonds, and their stability depends, inter alia, on temperature. Therefore, the stability of the collagen triple helix changes with the change of this factor. Due to the fact that the studied collagen fragments can be potentially used in regenerative medicine, it was necessary to check the stability of the structure in the temperature range as close as possible to physiological conditions. Therefore, the tests were performed at 4 °C, 20 °C and 40 °C after incubation for 24 h. The incubation process was to enable the self-assembly to form structures that mimic the triple helix of collagen. […] In the spectra, the presence of a characteristic maximum at a wavelength of about 220 nm and a minimum at about 190–200 nm was observed. However, the most important fact is that these peptides formed stable three-dimensional structures even at 40 °C.
The CD spectra were recorded using a Jasco J-1500 instrument (Jasco, Cracow, Poland) and quartz cuvettes with 1 mm optical path lengths. The measurements were acquired in the range of 190–270 nm at temperatures of 4 °C, 20 °C and 40 °C by taking points every 5 nm, with a scan rate of 100 nm per min, an integration time of 1 s, and a bandwidth of 4 nm. The samples were prepared in MiliQ purity water with a final concentration of 0.1 mg/mL. Samples before CD measurements were incubated for 24 h. at 4 °C, 20 °C and 40 °C using a Lauda thermostat.

[2] = Microscopic examination of peptide aggregates stained with Congo Red; format: physicochemical; conditions: phosphate buffer pH 7.2, 37.5 °C, 7 days
Experimental: In addition to CD studies, microscopic studies of peptides 1–33 and 2.1–2.4 stained with Congo Red were also performed. This method of visualization of peptide aggregates is a typical method of studying β-sheet structures in amyloid-type fibers.
In order to initiate aggregation, peptides were dissolved in a phosphate buffer solution of pH 7.2 and a concentration of 250 μM (approx. […] of peptide per 1 mL of solution) and incubated at 37.5 °C for 7 days.
Congo Red solution with a concentration of […] was prepared by dissolving the dye (Sigma-Aldrich) (17.42 mg; 0.025 mmol) in phosphate buffer (pH = 7.2) (10 mL) with the following composition: 100 mM NaH2PO4/Na2HPO4, 137 mM NaCl and 10% EtOH. Ethyl alcohol was added to the buffer to counteract the formation of dye micelles. A sample for microscopic analysis (peptide solution) was centrifuged at 12,000–14,000 rpm to precipitate. In the next step, the solution was decanted and the residue was washed three times with water to remove excess dye. Then, a suspension of the peptide in water was applied to a microscope slide. The samples were dried in a stream of air at room temperature and analyzed under polarized light.
The obtained structures were analyzed using a Delta Optical Genetic Pro (Warsaw, Poland) light microscope.

α1β1 integrin (ITGα1β1) = α1β1 integrin (ITGα1β1) (Homo sapiens, UniProt P05556+P56199); assay: MST determination of Kd for labeled α1β1 integrin and collagen IV fragments; format: binding
Chain of α1β1 integrin (ITGα1β1) (P56199 29-1141 limits assumed): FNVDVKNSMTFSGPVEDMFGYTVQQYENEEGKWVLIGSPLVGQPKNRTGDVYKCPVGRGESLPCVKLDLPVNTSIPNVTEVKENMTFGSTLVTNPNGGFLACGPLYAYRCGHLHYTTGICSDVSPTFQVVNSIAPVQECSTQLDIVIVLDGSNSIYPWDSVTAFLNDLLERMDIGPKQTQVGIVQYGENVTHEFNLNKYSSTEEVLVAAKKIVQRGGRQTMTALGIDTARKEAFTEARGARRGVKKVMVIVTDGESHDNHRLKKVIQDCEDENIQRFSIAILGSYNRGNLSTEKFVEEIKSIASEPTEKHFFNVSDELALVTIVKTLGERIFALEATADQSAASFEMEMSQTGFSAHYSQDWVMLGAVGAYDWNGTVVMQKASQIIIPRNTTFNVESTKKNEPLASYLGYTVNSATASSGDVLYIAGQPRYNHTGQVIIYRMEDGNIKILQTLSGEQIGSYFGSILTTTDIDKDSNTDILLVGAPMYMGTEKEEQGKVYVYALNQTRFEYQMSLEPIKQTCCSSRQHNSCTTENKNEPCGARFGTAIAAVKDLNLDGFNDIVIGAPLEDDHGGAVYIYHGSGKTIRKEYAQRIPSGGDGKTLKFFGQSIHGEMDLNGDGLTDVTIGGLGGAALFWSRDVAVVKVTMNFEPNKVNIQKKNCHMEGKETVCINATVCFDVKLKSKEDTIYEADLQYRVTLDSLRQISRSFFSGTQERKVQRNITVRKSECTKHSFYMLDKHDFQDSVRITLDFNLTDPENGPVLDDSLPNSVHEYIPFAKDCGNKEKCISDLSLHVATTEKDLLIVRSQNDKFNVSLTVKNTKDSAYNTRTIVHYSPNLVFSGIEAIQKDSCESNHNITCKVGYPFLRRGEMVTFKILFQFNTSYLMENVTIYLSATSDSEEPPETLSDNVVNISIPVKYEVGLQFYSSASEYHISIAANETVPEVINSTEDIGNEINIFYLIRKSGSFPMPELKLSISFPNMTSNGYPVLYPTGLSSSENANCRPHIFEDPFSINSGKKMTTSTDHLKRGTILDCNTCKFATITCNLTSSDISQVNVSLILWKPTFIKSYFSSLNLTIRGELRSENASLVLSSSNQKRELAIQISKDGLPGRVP
Chain of α1β1 integrin (ITGα1β1) (P05556 21-728 limits assumed): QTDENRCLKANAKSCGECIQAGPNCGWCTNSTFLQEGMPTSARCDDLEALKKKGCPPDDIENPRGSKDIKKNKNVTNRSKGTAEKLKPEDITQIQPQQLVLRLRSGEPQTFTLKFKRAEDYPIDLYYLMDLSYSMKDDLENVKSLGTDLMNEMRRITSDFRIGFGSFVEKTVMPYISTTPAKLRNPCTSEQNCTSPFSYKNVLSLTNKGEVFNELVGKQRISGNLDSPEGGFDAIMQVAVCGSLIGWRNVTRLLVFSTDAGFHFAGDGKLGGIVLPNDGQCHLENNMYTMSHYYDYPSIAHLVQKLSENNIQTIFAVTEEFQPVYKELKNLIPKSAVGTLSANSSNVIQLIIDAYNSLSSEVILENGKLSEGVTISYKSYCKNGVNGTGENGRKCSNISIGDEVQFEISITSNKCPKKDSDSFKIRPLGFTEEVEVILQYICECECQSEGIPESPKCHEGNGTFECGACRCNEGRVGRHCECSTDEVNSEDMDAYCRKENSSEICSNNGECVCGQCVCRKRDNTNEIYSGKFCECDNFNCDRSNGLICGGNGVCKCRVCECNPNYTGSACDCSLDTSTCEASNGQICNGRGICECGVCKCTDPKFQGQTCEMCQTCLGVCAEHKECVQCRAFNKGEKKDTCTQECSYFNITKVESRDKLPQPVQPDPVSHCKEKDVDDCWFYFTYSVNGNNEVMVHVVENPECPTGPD
Experimental: The tests were performed using the Microscale Thermophoresis (MST) technique [86]. […] For MST experiment His-tagged ITGα1β1 was labeled using a fluorescent dye, which enable a site-specific and stable noncovalent fluorescence labeling of polyhistidine-tagged proteins. The concentrations of labeled ITGα1β1 were kept constant at 25 nM, whereas the peptides were used as titration ligands with increasing concentrations.
The α1β1 integrin concentration was kept constant (25 nM), while the non-labeled binding partner collagen IV peptides were used at increasing concentrations as the titration ligand. The MST measurement was performed at 80% or 100% (for peptide 4) LED power and medium (40%) MST power. An MST-on time 4 s was used for analysis and a Kd (µM ± µM confidence) was derived for these interactions (n ≥ 3 independent measurements, error bars represent standard deviation).
• Preparation of Materials for MST Analysis • (1) ITGα1β1—a solution with a concentration of 9.3 µM was prepared. For this, 50 µL of sterile PBS (filtered through a 0.22 µm filter) was added to the protein. […] The fluorescent dye OG488 (ex = 498 nm, ex = 526 nm) provide an efficient method for site-specific and stable noncovalent fluorescence labeling of polyhistidine-tagged proteins. • (3) A 0.05% Tween20 solution in PBS (PBST) was prepared. • Testing the Affinity of the Dye to the Protein […]

Substance | ability to self-organize into structures mimicking the triple helix (CD) [1] | structure of aggregates stained with Congo Red [2] | Kd (α1β1 integrin (ITGα1β1); labeled His-tagged ITGα1β1 25 nM, 22 °C, MST-on time 4 s, Kd ± confidence) | ability to bind to ITGα1β1 (in words) (α1β1 integrin (ITGα1β1); labeled ITGα1β1 25 nM) | Ability to Mimic the Structure of the Collagen Helix [1]
^21AGEKSYGKPC^30 [Peptide 1] | not found | fibrous structures resembling amyloid structures | – | – | –
^821GIKGKSGLPG^830 [Peptide 17] | only at 4 °C | fibrous structures | – | – | –
^841PGKKGTRGKK^850 [Peptide 18] | only at 4 °C | fibrous structures | – | – | –
^1211PGIGIGAPGK^1220 [Peptide 27] | not found | fibrous structures resembling amyloid structures | – | – | –
^711GFPGPRGEKG^720 [Peptide 14] | have the ability to self-organize to form structures that mimic the structure of the triple helix | only amorphous structures | – | – | –
^641PGQQGLPGSK^650 [Peptide 12] | only at 4 °C | fibrous structures | – | – | –
^251GFPKGKKGSK^260 [Peptide 6] | have the ability to self-organize to form structures that mimic the structure of the triple helix | only amorphous structures | – | – | –
^921LKGIPGSTGK^930 [Peptide 21] | not found | fibrous structures resembling amyloid structures | – | – | –
^671PGFPGPKGSR^680 [Peptide 13] | only at 4 °C | fibrous structures | – | – | –
^1451MRVGYTLVKH^1460 [Peptide 31] | not found | fibrous structures resembling amyloid structures | – | – | –
^81PGLLGPYGPK^90 [Peptide 3] | not found | fibrous structures resembling amyloid structures | – | – | –
^1221PGLRGQKGDR^1230 [Peptide 28] | only at 4 °C | fibrous structures | – | – | –
^1101IGNIGFPGNK^1110 [Peptide 26] | have the ability to self-organize to form structures that mimic the structure of the triple helix | only amorphous structures | – | – | –
^541KGKKGEPILS^550 [Peptide 11] | not found | fibrous structures resembling amyloid structures | – | – | –
^1520CHYARRNDKSYW^1531 [Peptide 2.4] | only at 4 °C | fibrous structures | – | – | –
^721LPGFPGLPGK^730 [Peptide 15] | have the ability to self-organize to form structures that mimic the structure of the triple helix | only amorphous structures | no binding | no binding | +++
^1446MPGQSMRVGYTL^1457 [Peptide 2.2] | only at 4 °C | fibrous structures | – | – | –
^41CFPEKGARGR^50 [Peptide 2] | have the ability to self-organize to form structures that mimic the structure of the triple helix | only amorphous structures | – | – | –
^1453VGYTLVKHSQSE^1464 [Peptide 2.3] | only at 4 °C | fibrous structures | – | – | –
^891LSGPKGEKGS^900 [Peptide 20] | not found | fibrous structures resembling amyloid structures | – | – | –
^1521HYARRNDKSY^1530 [Peptide 32] | not found | fibrous structures resembling amyloid structures | – | – | –
^1661AGQLHTRVSR^1670 [Peptide 33] | – | fibrous structures | – | – | –
^951PVGIPSPRRP^960 [Peptide 22] | not found | fibrous structures resembling amyloid structures | – | – | –
^961MSNLWLKGDK^970 [Peptide 23] | not found | fibrous structures resembling amyloid structures | – | – | –
^1001GAPGLPGIIK^1010 [Peptide 24] | not found | fibrous structures resembling amyloid structures | – | – | –
^471LKGIKGDSGF^480 [Peptide 9] | not found | fibrous structures resembling amyloid structures | – | – | –
^311GPPGQQGKKG^320 [Peptide 7] | only at 4 °C | fibrous structures | – | – | –
^781PGLKGVHGKP^790 [Peptide 16] | not found | fibrous structures resembling amyloid structures | – | – | –
^1311KGMRGEPGFM^1320 [Peptide 29] | not found | fibrous structures resembling amyloid structures | – | – | –
^23EKSYGKPCGGQDC^35 [Peptide 2.1] | not found | fibrous structures resembling amyloid structures | – | – | –
